In ChEMBL document CHEMBL5500412, “Discovery of Highly Selective, Potent, Covalent, and Orally Bioavailable Factor XIIa Inhibitors for the Treatment of Thrombo-Inflammation” (J Med Chem, 2024):
The source made the active and inactive calls. The calls are words filed in the database; no cut-off is given here.

Columns and labels:
[1] = MRT (0 to infinity) in BALB/c mouse at 1 mg/kg, iv measured upto 24 hrs by LC-MS/MS analysis; assay type: ADME, organism-based; conditions: in vivo
[2] = Toxicity in BALB/c mouse assessed as effect on LDH level in serum at 60 to 100 mg/kg, po measured after 14 days; assay type: organism-based; conditions: in vivo, 336 h, dose 60-100 mg/kg, time 14 day
[3] = biological target: T1, Coagulation factor XII (Homo sapiens) (UniProt P00748); experiment: Inhibition of FXIIa (unknown origin) using H-D-Pro-Phe-Arg-pNA as substrate preincubated for 20 mins followed by 100 fold dilution upto 120 mins then substrate addition for 60 mins by jump dilution assay; conditions: time <= 200.0 min
T1 sequence (whole entry): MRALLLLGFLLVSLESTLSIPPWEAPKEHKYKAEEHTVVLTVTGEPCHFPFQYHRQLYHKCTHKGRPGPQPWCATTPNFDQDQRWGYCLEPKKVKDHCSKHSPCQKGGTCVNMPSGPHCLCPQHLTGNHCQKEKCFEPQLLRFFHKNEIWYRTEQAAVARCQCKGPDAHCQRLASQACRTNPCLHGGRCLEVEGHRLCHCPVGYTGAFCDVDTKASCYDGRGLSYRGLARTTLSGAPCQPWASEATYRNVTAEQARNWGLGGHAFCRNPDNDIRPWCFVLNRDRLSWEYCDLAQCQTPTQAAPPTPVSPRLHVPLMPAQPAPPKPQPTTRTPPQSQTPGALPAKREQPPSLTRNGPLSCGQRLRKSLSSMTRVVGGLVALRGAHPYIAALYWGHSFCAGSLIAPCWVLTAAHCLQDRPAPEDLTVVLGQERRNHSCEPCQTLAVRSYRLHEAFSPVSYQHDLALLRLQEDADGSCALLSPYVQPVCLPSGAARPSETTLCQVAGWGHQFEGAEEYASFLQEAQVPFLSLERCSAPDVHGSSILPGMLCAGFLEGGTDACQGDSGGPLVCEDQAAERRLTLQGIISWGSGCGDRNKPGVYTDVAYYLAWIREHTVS

[4] = Toxicity in BALB/c mouse assessed as effect on ALT level in serum at 60 to 100 mg/kg, po measured after 14 days; assay type: organism-based; conditions: in vivo, 336 h, dose 60-100 mg/kg, time 14 day
[5] = Toxicity in BALB/c mouse assessed as effect on ALP level in serum at 60 to 100 mg/kg, po measured after 14 days; assay type: organism-based; conditions: in vivo, 336 h, dose 60-100 mg/kg, time 14 day
[6] = Toxicity in BALB/c mouse assessed as effect on lung at 60 to 100 mg/kg, po measured after 14 days by H and E staining based analysis; assay type: organism-based; conditions: in vivo, 336 h, dose 60-100 mg/kg, time 14 day
[7] = biological target: T1, Coagulation factor XII (Homo sapiens); experiment: Binding affinity to FXIIa (unknown origin) assessed as inactivation rate using H-D-Pro-Phe-Arg-pNA.2HCl as substrate by spectrophotometric analysis

MRT inf [1]: 1.58 h | inhibition [3]: inactive | Kinact [7]: 0.027 min⁻¹
SMILES: CC(C)N1CCCN(c2ccc(C(=O)n3nc(-c4ccccn4)nc3N)c3ccccc23)CC1
Activity [2]: Non-Toxic | Activity [4]: Non-Toxic | Activity [5]: Non-Toxic | Activity [6]: Non-Toxic
